Results published in article PMC12143348, “Rapid and reversible fluorescent probe enables repeated snapshot imaging of AMPA receptors during synaptic plasticity” (Science Advances, 2025).

Key:
GluA2flip(Q) = molecular target: T1, GluA2flip(Q) (Mus musculus, UniProt P23819, DEL765-802); assay: Concentration-dependent binding of fluorophore-ligand conjugates, confocal live imaging of HEK293T cells expressing GluA2
T1 construct: expressed in transfected cells; host or cells: HEK293T

GluA3 (Y454A/R461G) = molecular target: T2, GluA3 (Y454A/R461G) (Mus musculus, UniProt Q9Z2W9, R461G/Y454A); assay: Concentration-dependent binding of PFQX1(AF488), confocal live imaging of HEK293T cells expressing GluA3; details: n = 3, read-out: Kd / Affinity of PFQX1(AF488) to GluA3
T2 construct: expressed in transfected cells; host or cells: HEK293T
Description: (§1) HEK293T cells were cotransfected with plasmids for AMPAR [5′UTR-GluA1^flip(R)-3′UTR, GluA2^flip(Q)-3′UTR, GluA3^flip(Q) (Y454A/R461G), and GluA4^flip(Q)], kainate receptor [GluK2(Q)], auxiliary subunits, or the control vector and transfection marker (EFGP-F or mCherry-F). Fluorophore-ligand conjugates were diluted in Hepes-buffered saline (HBS) buffer [20 mM Hepes (pH 7.4), 107 mM NaCl, 6 mM KCl, 1.2 mM MgSO4, 2 mM CaCl2, and 11.5 mM glucose] and added to the cells. Confocal live imaging was performed with LSM900 (Carl Zeiss) equipped with a 63×, numerical aperture (NA) = 1.4 oil-immersion objective. Fluorescence images were acquired by excitation at 405, 488, 561, or 640 nm derived from diode lasers.
(§2) For evaluating the concentration dependency of fluorophore-ligand conjugates, 0.1 nM probe in HBS was added to the dish. Then, probes in HBS were added stepwise to the dish to a final concentration of 0.3, 1, 3, 10, 30, 100, 300, 1000, and 3000 nM. Cell surface fluorescence intensity was quantified from the line scans of transfection marker positive cells and calculated with subtraction of background by ZEN blue software (Carl Zeiss). The membrane intensity was fitted with KaleidaGraph (Synergy software) to calculate the equilibrium constant value using the following equation: a + (b − a)/(1 + (x/c)^d). The equilibrium constant is regarded as the Kd in this study.

GluA2flip(R) = molecular target: T3, GluA2flip(R) (Mus musculus, UniProt P23819, DEL765-802/Q607R); assay: Concentration-dependent binding of PFQX1(AF488) to GluA2flip(R) expressed alone in HEK293T cells; details: n = 3–4, read-out: Kd / Affinity of PFQX1(AF488) to GluA2flip(R) expressed alone (–)
T3 construct: expressed in transfected cells; host or cells: HEK293T
Description: as §1
as §2, with “The membrane intensity was fitted with KaleidaGraph (Synergy software) to calculate the equilibrium constant value using the following equation: a + (b − a)/(1 + (x/c)^d). The equilibrium constant is regarded as the Kd in this study.” left out
(A) Concentration-dependent binding of PFQX1(AF488) to GluA2 flip(R) expressed with GSG1L or TARP γ7. […] (B) The surface intensity of PFQX1(AF488) was quantified. […]

GluA2flip(R) + TARP γ7 = molecular target: T4, GluA2flip(R) + TARP γ7 (Mus musculus, UniProt P23819, DEL765-802/Q607R); assay: Concentration-dependent binding of PFQX1(AF488) to GluA2flip(R) expressed with TARP γ7 in HEK293T cells; details: n = 3–4, read-out: Kd / Affinity of PFQX1(AF488) to GluA2flip(R) with TARP γ7
T4 construct: expressed in transfected cells; host or cells: HEK293T
Description: HEK293T cells (American Type Culture Collection) were cultured in Dulbecco’s modified Eagle’s medium (DMEM)–GlutaMAX (Invitrogen) supplemented with 10% fetal bovine serum (FBS) (Sigma-Aldrich), penicillin (100 U ml^−1), and streptomycin (100 μg ml^−1) and incubated in a 5% CO2 humidified chamber at 37°C. Cells were transfected with a plasmid using Lipofectamine 3000 (Invitrogen) according to the manufacturer’s instructions. Twenty-four hours after transfection, the cells were seeded on glass-bottom dishes coated with poly-L-lysine solution and incubated for 24 hours except for GluA4, TARP γ7, and GluK2. For GluA4, TARP γ7, and GluK2 expression, the cells were used 24 hours after transfection. […]
HEK293T cells were cotransfected with plasmids for AMPAR [5′UTR-GluA1^flip(R)-3′UTR, GluA2^flip(Q)-3′UTR, GluA3^flip(Q) (Y454A/R461G), and GluA4^flip(Q)], kainate receptor [GluK2(Q)], auxiliary subunits, or the control vector and transfection marker (EFGP-F or mCherry-F). […] Fluorescence images were acquired by excitation at 405, 488, 561, or 640 nm derived from diode lasers.
For evaluating the concentration dependency of fluorophore-ligand conjugates, 0.1 nM probe in HBS was added to the dish. […] Cell surface fluorescence intensity was quantified from the line scans of transfection marker positive cells and calculated with subtraction of background by ZEN blue software (Carl Zeiss). […]

GluA2 = molecular target: T5, GluA2 (Mus musculus, UniProt P23819, DEL765-802); assay: Kinetics and reversibility of PFQX1(AF488) binding in HEK293T cells expressing GluA2; details: 100 nM probe
T5 construct: expressed in transfected cells; host or cells: HEK293T
Description: HEK293T cells were transfected with Halo-tag-GluA2^flip(Q)-3′UTR. The cells were incubated with 500 nM Halo-Tag ligand-Alexa647 [HTL(AF647)] for 15 min at room temperature. AF647 was used as a transfection marker. The cells were washed three times with HBS, and a cloning ring (16 mm φ) was placed on the dish to accelerate the diffusion of the probe solution. After the dish was set on the stage, 100 nM PFQX1(AF488) was added to inside the cloning ring and imaged at specified time points by confocal microscopy.
For evaluating reversibility, 100 nM PFQX1(AF488) in HBS was added to the dish. The cells were observed by confocal microscopy as the first image. Then, the cells were washed three times with HBS and scanned as the wash image. After removal of the buffer, 100 nM PFQX1(AF488) was re-treated, and the cells were scanned as the second image. To quantify the fluorescence intensity of the membrane, the average signal intensity of regions of interest (ROIs) set on the membrane was calculated after subtracting background fluorescence by ZEN blue software.

AMPARs = assay: Kinetics and reversibility of PFQX1(AF488) binding in cultured hippocampal neurons; design: species or system mouse; details: 100 nM probe
Description: A cloning ring (16 mm φ) was placed on the dish to accelerate the diffusion of the probe solution. After the dish was set on the stage, the cells were treated with 100 nM PFQX1(AF488) and imaged at specified time points by confocal microscopy.
For evaluating reversibility, stained cells were observed by confocal microscopy as the first image. Then, the cells were washed three times with Hepes-based ACSF and scanned as the wash image. After removal of the buffer, 100 nM PFQX1(AF488) was re-treated, and the cells were scanned as the second image. To quantify the fluorescence intensity of spines, the average signal intensity of ROIs set on spines was calculated by ZEN blue software after subtracting background fluorescence.

T5 sequence (P23819 with tags, fused parts or gaps isoform P23819-4 DEL765-802): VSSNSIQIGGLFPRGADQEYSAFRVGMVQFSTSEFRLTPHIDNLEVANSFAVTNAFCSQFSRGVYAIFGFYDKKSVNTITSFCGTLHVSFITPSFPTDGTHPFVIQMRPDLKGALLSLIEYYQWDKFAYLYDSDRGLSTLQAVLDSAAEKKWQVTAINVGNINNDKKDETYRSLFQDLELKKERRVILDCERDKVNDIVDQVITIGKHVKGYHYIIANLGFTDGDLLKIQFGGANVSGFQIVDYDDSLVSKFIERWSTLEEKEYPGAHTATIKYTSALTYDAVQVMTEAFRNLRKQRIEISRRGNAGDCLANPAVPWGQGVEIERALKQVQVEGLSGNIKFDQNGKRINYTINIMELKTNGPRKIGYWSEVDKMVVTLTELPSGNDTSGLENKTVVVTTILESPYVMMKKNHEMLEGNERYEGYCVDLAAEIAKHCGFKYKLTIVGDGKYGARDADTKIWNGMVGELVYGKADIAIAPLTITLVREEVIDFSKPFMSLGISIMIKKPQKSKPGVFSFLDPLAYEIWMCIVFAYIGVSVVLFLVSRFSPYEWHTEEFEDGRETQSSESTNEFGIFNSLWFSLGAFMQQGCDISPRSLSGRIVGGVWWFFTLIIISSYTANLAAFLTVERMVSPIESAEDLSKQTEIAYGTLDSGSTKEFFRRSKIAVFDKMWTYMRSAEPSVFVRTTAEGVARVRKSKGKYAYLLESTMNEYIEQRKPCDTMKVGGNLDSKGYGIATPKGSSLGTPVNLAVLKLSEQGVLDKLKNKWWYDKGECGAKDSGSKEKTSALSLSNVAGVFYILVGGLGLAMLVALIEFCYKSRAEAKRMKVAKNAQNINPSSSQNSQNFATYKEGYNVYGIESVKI
T1 sequence (P23819 with tags, fused parts or gaps isoform P23819-4 DEL765-802): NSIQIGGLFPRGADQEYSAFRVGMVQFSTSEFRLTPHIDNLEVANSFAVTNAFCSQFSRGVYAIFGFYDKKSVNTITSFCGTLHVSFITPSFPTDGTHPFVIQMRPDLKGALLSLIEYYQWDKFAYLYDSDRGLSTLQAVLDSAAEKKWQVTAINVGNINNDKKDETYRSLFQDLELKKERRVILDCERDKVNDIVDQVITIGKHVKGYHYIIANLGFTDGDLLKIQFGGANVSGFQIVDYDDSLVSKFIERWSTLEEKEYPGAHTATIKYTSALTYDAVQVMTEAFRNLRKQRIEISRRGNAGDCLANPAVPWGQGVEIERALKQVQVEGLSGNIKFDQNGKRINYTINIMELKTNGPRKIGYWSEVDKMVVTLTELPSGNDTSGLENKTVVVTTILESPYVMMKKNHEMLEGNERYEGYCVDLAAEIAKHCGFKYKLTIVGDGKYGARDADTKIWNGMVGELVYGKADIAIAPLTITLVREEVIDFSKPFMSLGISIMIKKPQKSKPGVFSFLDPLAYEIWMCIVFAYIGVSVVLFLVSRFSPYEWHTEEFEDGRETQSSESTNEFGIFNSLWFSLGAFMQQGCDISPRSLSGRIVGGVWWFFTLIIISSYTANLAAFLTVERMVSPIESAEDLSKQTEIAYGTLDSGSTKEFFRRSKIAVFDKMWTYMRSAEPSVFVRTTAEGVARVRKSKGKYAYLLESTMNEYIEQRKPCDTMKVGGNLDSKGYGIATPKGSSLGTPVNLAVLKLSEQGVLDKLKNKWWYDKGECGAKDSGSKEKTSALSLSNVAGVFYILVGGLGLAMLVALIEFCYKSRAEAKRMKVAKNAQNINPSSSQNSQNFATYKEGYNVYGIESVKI
T3 sequence (P23819 with tags, fused parts or gaps isoform P23819-4 Q607R/DEL765-802): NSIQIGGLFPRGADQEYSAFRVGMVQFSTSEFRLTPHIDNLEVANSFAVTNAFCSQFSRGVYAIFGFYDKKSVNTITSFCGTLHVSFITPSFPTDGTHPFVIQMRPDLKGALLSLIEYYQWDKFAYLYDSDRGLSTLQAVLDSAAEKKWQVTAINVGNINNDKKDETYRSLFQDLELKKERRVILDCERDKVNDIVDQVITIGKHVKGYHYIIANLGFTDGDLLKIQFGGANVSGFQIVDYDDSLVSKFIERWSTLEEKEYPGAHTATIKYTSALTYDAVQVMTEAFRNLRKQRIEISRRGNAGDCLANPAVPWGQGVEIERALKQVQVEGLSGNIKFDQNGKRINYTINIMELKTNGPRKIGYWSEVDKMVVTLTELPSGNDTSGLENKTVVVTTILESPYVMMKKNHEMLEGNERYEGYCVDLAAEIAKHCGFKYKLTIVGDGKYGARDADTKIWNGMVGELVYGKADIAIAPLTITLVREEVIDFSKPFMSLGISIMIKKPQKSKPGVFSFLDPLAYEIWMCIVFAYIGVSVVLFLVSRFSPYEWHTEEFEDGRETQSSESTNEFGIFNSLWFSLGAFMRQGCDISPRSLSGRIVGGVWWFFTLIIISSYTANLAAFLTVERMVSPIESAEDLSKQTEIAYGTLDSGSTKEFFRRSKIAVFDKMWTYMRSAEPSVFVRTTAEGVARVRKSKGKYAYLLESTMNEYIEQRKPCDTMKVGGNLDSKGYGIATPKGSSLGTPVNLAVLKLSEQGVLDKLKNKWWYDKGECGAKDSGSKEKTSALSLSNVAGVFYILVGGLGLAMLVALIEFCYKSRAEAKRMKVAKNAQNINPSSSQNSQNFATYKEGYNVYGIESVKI
T4 sequence (P23819 with tags, fused parts or gaps isoform P23819-4 Q607R/DEL765-802): as above
T4 sequence (P62956 whole entry partner): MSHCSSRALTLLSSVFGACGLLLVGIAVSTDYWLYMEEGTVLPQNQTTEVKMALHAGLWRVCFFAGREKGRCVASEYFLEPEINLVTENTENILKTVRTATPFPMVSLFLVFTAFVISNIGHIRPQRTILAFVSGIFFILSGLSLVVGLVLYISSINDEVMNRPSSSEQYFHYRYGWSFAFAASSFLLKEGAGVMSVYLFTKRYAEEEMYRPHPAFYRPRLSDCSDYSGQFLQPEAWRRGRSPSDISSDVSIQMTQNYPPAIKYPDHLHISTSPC
T2 sequence (Q9Z2W9 23-888 Y454A/R461G): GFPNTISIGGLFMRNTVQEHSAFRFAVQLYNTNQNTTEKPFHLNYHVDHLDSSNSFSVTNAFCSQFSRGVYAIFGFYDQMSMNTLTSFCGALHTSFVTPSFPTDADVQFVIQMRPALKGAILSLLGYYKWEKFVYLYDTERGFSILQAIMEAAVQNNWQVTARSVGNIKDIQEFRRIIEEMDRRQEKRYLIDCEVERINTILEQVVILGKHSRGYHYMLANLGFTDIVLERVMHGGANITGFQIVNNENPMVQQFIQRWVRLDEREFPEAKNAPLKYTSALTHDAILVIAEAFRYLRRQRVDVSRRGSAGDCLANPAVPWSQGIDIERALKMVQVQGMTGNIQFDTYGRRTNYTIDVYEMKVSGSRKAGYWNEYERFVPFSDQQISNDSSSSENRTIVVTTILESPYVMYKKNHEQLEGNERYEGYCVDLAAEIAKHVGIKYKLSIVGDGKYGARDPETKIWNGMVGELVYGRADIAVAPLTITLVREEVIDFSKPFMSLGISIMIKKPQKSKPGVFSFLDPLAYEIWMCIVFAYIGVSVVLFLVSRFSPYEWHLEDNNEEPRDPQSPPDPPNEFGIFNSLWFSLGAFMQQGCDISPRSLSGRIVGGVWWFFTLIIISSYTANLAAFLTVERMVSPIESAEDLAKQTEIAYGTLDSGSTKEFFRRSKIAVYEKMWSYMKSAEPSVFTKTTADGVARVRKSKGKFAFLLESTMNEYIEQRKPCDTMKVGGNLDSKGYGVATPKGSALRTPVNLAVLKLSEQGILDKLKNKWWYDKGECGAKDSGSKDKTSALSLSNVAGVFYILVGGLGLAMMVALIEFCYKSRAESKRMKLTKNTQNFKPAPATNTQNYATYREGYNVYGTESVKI

cell-surface fluorescence / affinity to AMPARs (in words) (GluA2flip(Q); HEK293T cells expressing GluA2): high affinity
Kd (GluA2flip(Q); HEK293T cells expressing GluA2flip(Q), cell-surface fluorescence, mean ± SEM, n = 3, read-out: dissociation constant (Kd) / Affinity to GluA2): 37.2 ± 9.8 nM
Kd (GluA3 (Y454A/R461G)): 30.6 ± 7 nM
Kd (GluA2flip(R)): 32.3 ± 4.7 nM
Kd (GluA2flip(R) + TARP γ7): 118 ± 44.7 nM
time to saturation of cell-surface fluorescence after probe addition (GluA2): ≤ 20 s
reversibility of binding (medium exchange) (AMPARs): easily removed by medium exchange
time to saturation of fluorescent signals after probe addition (AMPARs): 10 s
Compound: N=c1ccc2c(-c3ccc(C(=O)NCc4ccn(-c5cc6c(cc5C(F)(F)F)[nH]c(=O)c(=O)n6CC(=O)O)c4)cc3C(=O)O)c3ccc(N)c(S(=O)(=O)O)c3oc-2c1S(=O)(=O)O [PFQX1(AF488)]
reversibility of binding (medium exchange) (GluA2): fluorescence from the cell surface was lost after the medium exchange
